Measurements: the Deep4Chem optical property database
Where “and” joins values, the source holds several entries; their conditions need not be identical. Equal values may be shown once. Each block holds one compound with its values, some of them ahead of it.

Experiment: solvent given as SMILES

Structure (SMILES): CC1(C)c2ccccc2N(c2ccc(-c3ncc(C#N)cn3)cc2)c2ccccc21
absorption maximum (in Cc1ccccc1): 396 nm

Structure (SMILES): CC1(C)c2ccccc2N(c2ccc3c(c2)C(c2ccccc2)(c2ccccc2)c2cc(N4c5ccccc5C(C)(C)c5ccccc54)ccc2S3(=O)=O)c2ccccc21
absorption maximum (in Cc1ccccc1): 364 nm

Structure (SMILES): CCCCCCc1ccc(-n2c3[n+](c4c5ccccc5c5ccccc5c42)[B-](C)(C)c2ccccc2-3)cc1
absorption maximum (in C1CCOC1): 359 nm
absorption maximum (in CC#N): 359 nm
absorption maximum (in Cc1ccccc1): 361 nm
absorption maximum (in ClCCl): 361 nm

Structure (SMILES): CCC1=C(C)C2=C(C)c3c(C)c(CC)c(C)n3[B-](F)(F)[N+]2=C1C
absorption maximum (in C1CCCCC1): 522.5 nm
absorption maximum (in C1CCOC1): 518.4 nm
absorption maximum (in C1COCCO1): 518.6 nm
absorption maximum (in CC#N): 514.8 nm
absorption maximum (in CC(C)=O): 516 nm
absorption maximum (in CC(C)O): 518.8 nm
absorption maximum (in CCC(C)C): 520.4 nm
absorption maximum (in CCCCCC): 521.1 nm
absorption maximum (in CCCCCCCC): 521.2 nm
absorption maximum (in CCCCCCCCCCO): 521.8 nm
absorption maximum (in CCCCCCCCO): 521 nm
absorption maximum (in CCCCCCO): 520.4 nm
absorption maximum (in CCCCO): 519.4 nm
absorption maximum (in CCCO): 518.9 nm
absorption maximum (in CCO): 517.7 nm
absorption maximum (in CCOC(C)=O): 516.4 nm
absorption maximum (in CCOCC): 518.8 nm
absorption maximum (in CN1CCCC1=O): 518.2 nm
absorption maximum (in CN(C)C=O): 517.1 nm
absorption maximum (in CO): 516.2 nm
absorption maximum (in Cc1ccccc1): 522.5 nm
absorption maximum (in ClCCl): 520 nm
absorption maximum (in OCC(F)(F)F): 515.7 nm
absorption maximum (in OCCO): 518 nm
absorption maximum (in OCCOc1ccccc1): 522.3 nm
absorption maximum (in c1ccccc1): 522.7 nm

Structure (SMILES): N#Cc1c(-n2nnc3c2CCC2C(CC3)[C@@H]2CO)n([C@H]2C[C@H](O)[C@@H](CO)O2)c2ncnc(N)c12 (stereo partly drawn)
absorption maximum (in CO): 287 nm

Structure (SMILES): CC1(C)c2ccccc2N(c2ccc3nc4c5ccc(N6c7ccccc7C(C)(C)c7ccccc76)cc5c5cc(N6c7ccccc7C(C)(C)c7ccccc76)ccc5c4nc3c2)c2ccccc21
absorption maximum (in Cc1ccccc1): 456 nm

Structure (SMILES): CC(C)(C)c1ccccc1N(c1ccccc1)c1ccc(S(=O)(=O)c2ccc(S(=O)(=O)c3ccc(N(c4ccccc4)c4ccccc4C(C)(C)C)cc3)cc2)cc1
absorption maximum (in Cc1ccccc1): 348 nm

Structure (SMILES): Cc1cc(C)c(-c2nnc(-c3ccc(-n4c5ccccc5c5ccccc54)cc3)o2)c(C)c1
absorption maximum (in Cc1ccccc1): 340 nm

Structure (SMILES): C1=CC2=Nc3cccc[n+]3CN2C=C1
absorption maximum (in CO): 412 nm

Structure (SMILES): CC1(C)c2ccccc2N(c2ccc(-c3nc4cc(C#N)c(C#N)cc4nc3-c3ccc(N4c5ccccc5C(C)(C)c5ccccc54)cc3)cc2)c2ccccc21
absorption maximum (in Cc1ccccc1): 454 nm

Structure (SMILES): CC[N+]1(CC)CN2C(=N1)C(C(=O)O)=Cc1cc(F)ccc12
absorption maximum (in O): 375 nm

Structure (SMILES): c1ccc(N2c3ccc4ccccc4c3-c3c4ccccc4cc[n+]3[B-]2(c2ccccc2)c2ccccc2)cc1
absorption maximum (in Cc1ccccc1): 511 nm

Structure (SMILES): [NH3+]C(Cc1ccc(O)c(O)c1)C(=O)[O-] (stereo not drawn)
absorption maximum (in O): 278 nm

Structure (SMILES): COc1ccccc1-c1nc2c3cccnc3c3ncccc3c2n1-c1ccccc1
absorption maximum (in Cc1ccccc1): 363 nm

Structure (SMILES): FC(F)(F)C(F)(F)C(F)(F)C(F)(F)C(F)(F)C(F)(F)C(F)(F)C(F)(F)CCOc1nnc(Cl)nn1
absorption maximum (in ClCCl): 519 nm
absorption maximum (in OCC(F)(F)F): 509 nm

Structure (SMILES): O=Cc1ccc(C2=C3C=c4c(oc5ccccc45)=[N+]3[B-](F)(F)n3c2cc2c4ccccc4oc23)cc1
absorption maximum (in C1CCCCC1): 592.5 nm
absorption maximum (in C1CCOC1): 589 nm
absorption maximum (in CC#N): 585.5 nm
absorption maximum (in CCOC(C)=O): 587 nm
absorption maximum (in CN(C)C=O): 589 nm
absorption maximum (in CO): 583 nm
absorption maximum (in Cc1ccccc1): 597 nm
absorption maximum (in ClCCl): 593.5 nm

Structure (SMILES): CC(C)(C)c1ccc2c(c1)c1cc(C(C)(C)C)ccc1n2-c1c(C#N)c(-n2c3ccc(C(C)(C)C)cc3c3cc(C(C)(C)C)ccc32)c(-n2c3ccc(C(C)(C)C)cc3c3cc(C(C)(C)C)ccc32)c(-n2c3ccc(C(C)(C)C)cc3c3cc(C(C)(C)C)ccc32)c1-n1c2ccc(C(C)(C)C)cc2c2cc(C(C)(C)C)ccc21
absorption maximum (in Cc1ccccc1): 427.95 nm

Structure (SMILES): F[B-]1(F)N2C(=Nc3cccc4cccc2c34)c2cccc[n+]21
absorption maximum (in CC#N): 350 nm
absorption maximum (in CO): 348 nm
absorption maximum (in CS(C)=O): 351 nm
absorption maximum (in Cc1ccccc1): 354 nm

Structure (SMILES): c1ccc(-c2nnc(-c3ccc(-n4c5ccccc5c5ccccc54)cc3)o2)cc1
absorption maximum (in Cc1ccccc1): 340 nm

Structure (SMILES): CC(C)(C(=O)c1ccc(N2c3ccccc3C(C)(C)c3ccccc32)cc1)C(=O)c1ccc(N2c3ccccc3C(C)(C)c3ccccc32)cc1
absorption maximum (in Cc1ccccc1): 390 nm

Structure (SMILES): CC(C)(C)c1ccc(C#Cc2cc(C#Cc3ccc(C(C)(C)C)cc3)c(C#Cc3ccc(C(C)(C)C)cc3)c(C#Cc3ccc(C(C)(C)C)cc3)c2C#Cc2ccc(C(C)(C)C)cc2)cc1
absorption maximum (in ClCCl): 373 nm

Other lines, results leading:

absorption maximum (in CC#N): 295 nm
Structure (SMILES): COc1cccc(/C=C/c2ccccc2)c1

absorption maximum (in CC#N): 330 nm and 365 nm
Structure (SMILES): COc1ccc(-c2nc(-c3ccc(-c4nc(-c5ccc(OC)cc5)c(-c5ccc(OC)cc5)[nH]4)cc3)[nH]c2-c2ccc(OC)cc2)cc1

absorption maximum (in ClCCl): 303 nm
Structure (SMILES): Cc1cc2ccccc2c2c1c1ccccc1n2-c1ccc(C#N)cc1

absorption maximum (in ClCCl): 348 nm
Structure (SMILES): CCOC(=O)c1c(-c2cc3cc4c(cc3oc2=O)OC(C)(C)CC4)nn(-c2ccccc2)c1C(=O)OCC

absorption maximum (in ClCCl): 423 nm
Structure (SMILES): Fc1ccc(N(c2ccccc2)c2ccc3ccc4c(N(c5ccccc5)c5ccc(F)cc5)ccc5ccc2c3c54)cc1

absorption maximum (in C1CCOC1): 332 nm
Structure (SMILES): Cc1cc(C)c(C2=C(c3c(C)sc(-c4ccc(-c5nc(-c6ccccc6)c(-c6ccccc6)[nH]5)cc4)c3C)C(F)(F)C(F)(F)C2(F)F)s1

absorption maximum (in CC#N): 396 nm
absorption maximum (in CCCCCC): 398 nm
absorption maximum (in CO): 396 nm
absorption maximum (in c1ccccc1): 396 nm
Structure (SMILES): O=c1oc2c(ccc3ccccc32)nc1-c1ccccc1

absorption maximum (in CO): 320 nm
Structure (SMILES): Cc1ccc(-c2nc(-c3ccccc3O)[nH]c2-c2ccc(C)cc2)cc1

absorption maximum (in C1CCCCC1): 429 nm
absorption maximum (in C1CCOC1): 404 nm
absorption maximum (in C1COCCO1): 387 nm
absorption maximum (in CC#N): 393 nm and 363 nm
absorption maximum (in CCCCCC): 428 nm and 427 nm
absorption maximum (in CO): 391 nm
absorption maximum (in ClC(Cl)Cl): 414 nm and 388 nm
absorption maximum (in ClCCl): 408 nm
Structure (SMILES): F[B-]1(F)n2c(nc(-c3ccccc3)c2-c2ccccc2)-c2cccc[n+]21

absorption maximum (in CC1CCCCC1): 327 nm
absorption maximum (in CC#N): 333 nm
absorption maximum (in CO): 335 nm
Structure (SMILES): COC(=O)C(NC(=O)OC(C)(C)C)c1ccc2oc(-c3cc(OC)c(OC)cc3OC)nc2c1 (stereo not drawn)

absorption maximum (in ClCCl): 311 nm
Structure (SMILES): CCOC(=O)C1=C(C(=O)OCC)C2(c3ccccc3-c3ccccc32)[C@@H](c2ccccc2)C=C2c3cc(OC)c(OC)cc3CCN21

absorption maximum (in C1CCOC1): 347 nm
absorption maximum (in ClCCl): 350 nm
Structure (SMILES): O=P1(c2ccccc2)C(c2ccccc2)=Cc2ccccc21 (stereo not drawn)

absorption maximum (in ClCCl): 366 nm
Structure (SMILES): COc1cc(OC)cc(-c2ccc(C3=CC(c4ccccc4)=C(c4ccccc4)C3)cc2)c1

absorption maximum (in C1CCCCC1): 319 nm
Structure (SMILES): CCCC1(CCC)c2cc(C#N)ccc2-c2ccc(C#N)cc21

absorption maximum (in C1CCOC1): 376 nm
Structure (SMILES): CCCCC1(CCCC)c2cc(C#Cc3ccc(C=C(c4ccccc4)c4ccccc4)cc3)ccc2-c2ccc(C#Cc3ccc(C=C(c4ccccc4)c4ccccc4)cc3)cc21

absorption maximum (in ClCCl): 400 nm
Structure (SMILES): C(=C\c1ncc2ccccc2n1)/c1ccc(N(c2ccccc2)c2ccccc2)cc1

absorption maximum (in ClCCl): 314 nm
Structure (SMILES): CCCCCCCCOc1ccc(C#Cc2ccc3oc4ccccc4c3c2)c(OCCCCCCCC)c1

absorption maximum (in ClCCl): 378 nm
Structure (SMILES): CC(C)(C)c1ccc(-c2cc(-c3ccc(-c4cc(-c5ccc(C(C)(C)C)cc5)c(C(=O)N5CCCCC5)s4)s3)sc2C(=O)N2CCCCC2)cc1

absorption maximum (in ClC(Cl)Cl): 424 nm
Structure (SMILES): CCCCN1c2ccccc2Sc2cc(/C=C\c3cc(=O)oc4cc(C)ccc34)ccc21

absorption maximum (in C1COCCO1): 384 nm
Structure (SMILES): O=C1NC(c2ccccc2)=N/C1=C\c1ccccc1

absorption maximum (in C1CCOC1): 419 nm
Structure (SMILES): CC(C)(C)c1ccc(C2=C(c3ccc(-n4c5ccccc5c5ccccc54)cc3)S(=O)(=O)c3c2sc(-c2ccc(-n4c5ccccc5c5ccccc54)cc2)c3-c2ccc(C(C)(C)C)cc2)cc1

absorption maximum (in ClCCl): 415 nm
Structure (SMILES): CCCCNc1nc(/C=C/c2ccccc2)[n+]([O-])c2c1CCCC2

absorption maximum (in ClCCl): 686 nm
Structure (SMILES): COc1c2ccccc2c(OC)c2c(C#C[Si](C(C)C)(C(C)C)C(C)C)c3cc4ccccc4cc3c(C#C[Si](C(C)C)(C(C)C)C(C)C)c12

absorption maximum (in C1CCOC1): 368 nm
Structure (SMILES): O=P1(c2ccccc2)C(c2cccs2)=Cc2ccccc21 (stereo not drawn)

absorption maximum (in CCCCCCC): 446 nm
Structure (SMILES): c1ccc2c3c(ccc2c1)-c1cccc2cc4ccccc4c-3c12

absorption maximum (in C1CCCCC1): 586.5 nm
absorption maximum (in CCOC(C)=O): 581.5 nm
absorption maximum (in CO): 580 nm
Structure (SMILES): COC(=O)[C@H](Cc1ccc2oc3c(c2c1)=CC1=C(c2ccc(OC)cc2)c2cc4c5cc(C[C@H](NC(=O)OC(C)(C)C)C(=O)OC)ccc5oc4n2[B-](F)(F)[N+]=31)NC(=O)OC(C)(C)C

absorption maximum (in ClCCl): 343 nm
Structure (SMILES): O=[N+]([O-])c1ccc2c(c1)-c1c3c(c4c([n+]1[B-](F)(F)O2)CCc1ccccc1-4)CCc1ccccc1-3

absorption maximum (in CS(C)=O): 644 nm
Structure (SMILES): O=C(O)COc1cccc(-c2c3nc(cc4ccc([nH]4)c(-c4cccc(OCC(=O)O)c4)c4nc(cc5ccc2[nH]5)CC4)C=C3)c1
